Key:
Test in all cases: selective drug sensitivity score (sDSS, relative to normal bone marrow) (sDSS (score)); higher = more potent and effective on the cell line relative to normal bone marrow cells
Conditions in all cases: 72 h
697 = tested on: 697
CCRF-CEM = tested on: CCRF-CEM
P30-OHKUBO = tested on: P30-OHKUBO
NALM-16 = tested on: NALM-16
KARPAS-45 = tested on: KARPAS-45
TANOUE = tested on: TANOUE
SUP-B15 = tested on: SUP-B15
RPMI-8402 = tested on: RPMI-8402
MOLT-16 = tested on: MOLT-16
SEM cells = tested on: SEM cells
COG-LL-355h = tested on: COG-LL-355h
ALL-PO = tested on: ALL-PO
COG-LL-402h = tested on: COG-LL-402h
MOLT-14 = tested on: MOLT-14
380 = tested on: 380
P12-ICHIKAWA = tested on: P12-ICHIKAWA
TMD5 = tested on: TMD5
COG-LL-394h = tested on: COG-LL-394h
RCH-ACV = tested on: RCH-ACV
HPB-ALL = tested on: HPB-ALL
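Note: ALL cell lines in 384-well plates, five doses spanning 10,000-fold, each plate scaled between vehicle and 100 µmol/L benzalkonium chloride controls, sDSS an adapted area-under-curve metric.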

| Structure (SMILES) | selective drug sensitivity score 697 | selective drug sensitivity score (CCRF-CEM) | selective drug sensitivity score (P30-OHKUBO) | selective drug sensitivity score (NALM-16) | selective drug sensitivity score (KARPAS-45) | selective drug sensitivity score (TANOUE) | selective drug sensitivity score (SUP-B15) | selective drug sensitivity score (RPMI-8402) | selective drug sensitivity score (MOLT-16) | selective drug sensitivity score (SEM cells) | selective drug sensitivity score (COG-LL-355h) | selective drug sensitivity score (ALL-PO) | selective drug sensitivity score (COG-LL-402h) | selective drug sensitivity score (MOLT-14) | selective drug sensitivity score 380 | selective drug sensitivity score (P12-ICHIKAWA) | selective drug sensitivity score (TMD5) | selective drug sensitivity score (COG-LL-394h) | selective drug sensitivity score (RCH-ACV) | selective drug sensitivity score (HPB-ALL) |
| --- | --- | --- | --- | --- | --- | --- | --- | --- | --- | --- | --- | --- | --- | --- | --- | --- | --- | --- | --- | --- |
| C/C=C1\NC(=O)[C@H]2CSSCC/C=C/[C@H](CC(=O)N[C@H](C(C)C)C(=O)N2)OC(=O)[C@H](C(C)C)NC1=O [Romidepsin] (top concentration 1000 nM) | 3.16 | 1.16 | 1.66 | 0.76 | 2.86 | -11 | 4.16 | 1.66 | 2.76 | 3.96 | -0.54 | 6.96 | 8.76 | 2.16 | 8.56 | 1.66 | 3.46 | -0.94 | 2.36 | 3.66 |
| CNCc1ccc(-c2[nH]c3cc(F)cc4c3c2CCNC4=O)cc1 [Rucaparib] (top concentration 10000 nM) | 6.42 | 1.32 | 0.42 | -0.58 | 0.72 | -0.58 | 5.42 | 0.32 | 2.72 | 2.72 | 0.92 | -0.58 | 2.42 | 1.62 | 11.5 | -0.58 | -0.38 | 0.92 | 1.02 | -0.58 |
| CC(C)(C)c1cnc(CSc2cnc(NC(=O)C3CCNCC3)s2)o1 [SNS-032] (top concentration 10000 nM) | -2.64 | -1.74 | -0.34 | -6.04 | -2.24 | -14 | -3.14 | -4.74 | -0.64 | -3.24 | 0.16 | -6.74 | 3.06 | -4.74 | -6.64 | -5.04 | -4.54 | -2.04 | 1.26 | -4.74 |
| Cc1c(C(=O)Nc2ccc(N3C[C@@H](C)O[C@@H](C)C3)nc2)cccc1-c1ccc(OC(F)(F)F)cc1 [Sonidegib] (top concentration 10000 nM) | 1.28 | -0.12 | 5.68 | -3.92 | 0.68 | -2.42 | 1.68 | 1.88 | 3.18 | -3.92 | -3.92 | 3.98 | -3.92 | 0.38 | -3.92 | 0.38 | -3.92 | -0.02 | 5.78 | 3.08 |
| CNC(=O)c1cc(Oc2ccc(NC(=O)Nc3ccc(Cl)c(C(F)(F)F)c3)cc2)ccn1 [Sorafenib] (top concentration 1000 nM) | 1.7 | 0 | 2.2 | 0 | 0.5 | 0 | 0 | 0 | 0 | 15.1 | 0 | 5.5 | 0 | 0 | 0 | 0 | 0 | 0 | 1.4 | 0.1 |
| CN1CCN(c2nc(C3=C(c4c[nH]c5ccccc45)C(=O)NC3=O)c3ccccc3n2)CC1 [Sotrastaurin] (top concentration 10000 nM) | 8 | -0.1 | 3.1 | 1.8 | -0.4 | -2.3 | 2.2 | 0 | 4.4 | 6.7 | 5.7 | 5 | 5.2 | -2 | 4.5 | -1.3 | 2.9 | 0.2 | 3.4 | 2.6 |
| Cc1cc(C(C)Nc2ccccc2)c2nc(N3CCOCC3)cc(=O)n2c1 (stereo not given) [TGX-221] (top concentration 10000 nM) | 0.16 | -0.54 | 3.36 | -1.64 | 1.46 | -0.94 | 0.36 | -0.04 | -1.34 | 5.46 | 2.96 | 1.16 | 1.76 | -1.14 | -1.64 | -1.64 | -1.64 | -1.24 | 13.5 | -1.64 |
| Cc1nc(-c2cn3c(n2)-c2ccc(-c4cnn(C(C)(C)C(N)=O)c4)cc2OCC3)n(C(C)C)n1 [Taselisib] (top concentration 1000 nM) | 3.9 | 3.9 | 12.2 | 4.2 | 2 | -4.3 | -1.4 | 1.5 | 2.8 | 5.2 | 11.9 | 13.2 | 10.9 | -4.3 | 7.4 | -0.3 | -4.3 | -2.7 | 22.1 | -0.4 |
| Cn1cncc1[C@@](N)(c1ccc(Cl)cc1)c1ccc2c(c1)c(-c1cccc(Cl)c1)cc(=O)n2C [Tipifarnib] (top concentration 10000 nM) | 6.9 | 10.3 | 3.5 | 9.9 | 25.4 | -7.5 | 8.9 | 20.9 | 11.8 | 18.6 | 4.5 | 9 | 6.6 | 11.9 | 9.2 | 9.6 | 6.8 | -1.1 | 6.9 | 6.1 |
| CN(C)CCOc1ccc(/C(=C(/CCCl)c2ccccc2)c2ccccc2)cc1 [Toremifene] (top concentration 10000 nM) | 0.28 | -0.02 | 0.58 | -0.82 | 0.38 | -2.62 | 2.58 | 0.58 | 3.38 | 0.48 | 2.28 | 3.18 | -2.72 | 2.48 | 1.58 | -1.12 | 0.78 | 0.58 | 6.88 | -1.72 |
| CC(=O)Nc1cccc(-n2c(=O)n(C3CC3)c(=O)c3c(Nc4ccc(I)cc4F)n(C)c(=O)c(C)c32)c1 [Trametinib] (top concentration 250 nM) | -2.64 | -1.84 | -8.04 | -1.24 | -7.14 | -7.74 | 13.6 | -8.04 | -1.94 | -8.04 | 5.06 | -1.44 | -2.54 | 6.96 | 3.56 | -3.64 | 0.16 | -4.34 | -8.04 | -0.24 |
| O=C(CCCCCCC(=O)Nc1ccc([C@H]2O[C@@H](CSc3nc(-c4ccccc4)c(-c4ccccc4)o3)C[C@@H](c3ccc(CO)cc3)O2)cc1)NO [Tubacin] (top concentration 10000 nM) | 8.54 | 8.74 | 7.44 | 7.14 | 5.04 | 2.74 | 16.5 | 7.64 | 9.14 | 9.44 | 7.14 | 5.74 | 5.04 | 8.34 | 20.4 | 14.9 | 12.9 | 5.44 | 11.2 | 4.44 |
| CN1CCc2c(c3ccccc3n2Cc2ccc(C(=O)NO)cc2)C1 [Tubastatin_A] (top concentration 10000 nM) | 4.46 | 2.06 | 6.96 | -0.14 | 4.46 | -0.14 | 3.46 | 1.86 | 2.86 | 4.76 | 3.16 | 3.06 | 7.46 | 1.06 | 11.7 | 0.36 | -0.14 | -0.14 | 8.16 | 6.76 |
| C[C@]1(c2nc3c(C(N)=O)cccc3[nH]2)CCCN1 [Veliparib] (top concentration 10000 nM) | -1.08 | -4.18 | 4.42 | -4.18 | -4.18 | -4.18 | -1.08 | -3.88 | 0.32 | -4.18 | 2.82 | -1.78 | -3.48 | 0.22 | -2.78 | -4.18 | -4.18 | -4.18 | -2.58 | -0.28 |
| CS(=O)(=O)c1ccc(C(=O)Nc2ccc(Cl)c(-c3ccccn3)c2)c(Cl)c1 [Vismodegib] (top concentration 10000 nM) | -0.84 | -1.14 | 0.36 | -1.14 | -1.14 | -1.14 | 11.3 | -1.14 | -1.14 | 2.06 | 2.26 | 3.56 | -1.14 | -1.14 | 0.76 | -1.14 | 1.26 | -1.14 | 3.46 | 0.76 |
